The text below walks through data of article PMC10123126, “Insights into translocation mechanism and ribosome evolution from cryo-EM structures of translocation intermediates of Giardia intestinalis” (Nucleic Acids Research, 2023).

This test has as its target T1, eEF2 (Giardia duodenalis, UniProt A8BU59).
T1 construct: gene GL50803_0017570; GDP in G domain (domain I)
The test is described as follows: cryo-EM structure. The class given is binding.

The structures appear in SMILES notation.

T1 sequence (A8BU59 1-898): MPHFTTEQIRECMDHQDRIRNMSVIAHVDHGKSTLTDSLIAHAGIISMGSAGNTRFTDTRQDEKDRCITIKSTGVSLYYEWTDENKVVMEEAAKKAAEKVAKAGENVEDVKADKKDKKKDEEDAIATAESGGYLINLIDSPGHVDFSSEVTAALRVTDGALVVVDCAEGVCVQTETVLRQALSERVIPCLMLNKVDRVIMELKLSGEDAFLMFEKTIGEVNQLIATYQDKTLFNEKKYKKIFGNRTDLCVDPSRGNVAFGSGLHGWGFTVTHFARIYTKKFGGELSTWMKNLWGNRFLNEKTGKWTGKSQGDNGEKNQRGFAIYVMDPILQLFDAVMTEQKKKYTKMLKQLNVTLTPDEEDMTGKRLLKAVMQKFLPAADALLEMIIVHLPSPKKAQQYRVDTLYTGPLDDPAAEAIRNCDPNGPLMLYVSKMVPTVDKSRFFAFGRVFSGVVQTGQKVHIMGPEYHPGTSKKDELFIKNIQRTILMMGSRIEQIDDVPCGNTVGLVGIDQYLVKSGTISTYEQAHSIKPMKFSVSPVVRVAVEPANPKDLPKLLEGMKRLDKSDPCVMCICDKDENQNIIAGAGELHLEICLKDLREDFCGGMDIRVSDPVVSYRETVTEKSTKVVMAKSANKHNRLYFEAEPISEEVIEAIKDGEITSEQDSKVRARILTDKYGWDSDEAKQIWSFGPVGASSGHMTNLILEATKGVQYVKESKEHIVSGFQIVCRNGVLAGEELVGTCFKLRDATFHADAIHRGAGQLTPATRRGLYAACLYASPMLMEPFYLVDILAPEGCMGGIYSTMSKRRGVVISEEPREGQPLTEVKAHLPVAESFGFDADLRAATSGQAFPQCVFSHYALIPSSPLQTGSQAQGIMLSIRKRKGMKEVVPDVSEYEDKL

With `O=P(O)(O)O` [Pi], the cryo-EM structure entry (ribosome-bound eEF2·GDP, state B, leaving phosphate of GTP hydrolysis, held by H143 of switch-II) was “A distinct density of the ‘leaving Pi’ group can be seen”.
Regarding `Nc1nc2c(ncn2[C@@H]2O[C@H](COP(=O)(O)OP(=O)(O)O)[C@@H](O)[C@H]2O)c(=O)[nH]1` [GDP], where the note is “ribosome-bound eEF2, state B (chimeric hybrid), G domain, P-loop (G1), G4 and G5 motifs, naturally bound, no inhibitor or analog added”, the cryo-EM structure entry was “We found a clear density of GDP in the G domain of eEF2”.
